The target in assay [1] is T1, Adenosine receptor A1 (Mus musculus, UniProt Q60612).
T1 sequence (Q60612 whole entry): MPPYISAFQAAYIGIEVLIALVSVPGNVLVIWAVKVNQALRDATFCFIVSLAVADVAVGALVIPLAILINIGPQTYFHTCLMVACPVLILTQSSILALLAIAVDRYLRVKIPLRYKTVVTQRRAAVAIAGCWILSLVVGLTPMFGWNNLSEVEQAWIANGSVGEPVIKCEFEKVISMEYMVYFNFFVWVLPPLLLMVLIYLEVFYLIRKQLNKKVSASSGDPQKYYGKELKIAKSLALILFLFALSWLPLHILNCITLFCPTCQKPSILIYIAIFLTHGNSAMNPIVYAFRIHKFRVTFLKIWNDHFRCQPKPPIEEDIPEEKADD
Kind of assay: Binding affinity to mouse adenosine A1 receptor.

In assay [2] the target is T2, Adenosine receptor A1 (Cavia porcellus, UniProt P47745).
T2 sequence (P47745 whole entry): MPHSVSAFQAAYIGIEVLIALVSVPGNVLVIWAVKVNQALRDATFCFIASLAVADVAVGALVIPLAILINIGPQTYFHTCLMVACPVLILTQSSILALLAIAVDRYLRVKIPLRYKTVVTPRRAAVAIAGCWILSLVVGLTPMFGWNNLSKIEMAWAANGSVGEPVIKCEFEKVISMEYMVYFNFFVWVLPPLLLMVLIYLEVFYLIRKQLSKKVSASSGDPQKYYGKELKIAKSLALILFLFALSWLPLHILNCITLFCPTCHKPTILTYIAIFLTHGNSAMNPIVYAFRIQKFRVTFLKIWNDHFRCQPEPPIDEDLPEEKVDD
Kind of assay: Binding affinity to guinea pig adenosine A1 receptor.

The target of assay [3] is Adenosine receptor A2a (Cavia porcellus, UniProt P46616). Kind of assay: Binding affinity to guinea pig adenosine A2A receptor.
Sequence of Adenosine receptor A2a (Cavia porcellus, UniProt P46616) (P46616 whole entry): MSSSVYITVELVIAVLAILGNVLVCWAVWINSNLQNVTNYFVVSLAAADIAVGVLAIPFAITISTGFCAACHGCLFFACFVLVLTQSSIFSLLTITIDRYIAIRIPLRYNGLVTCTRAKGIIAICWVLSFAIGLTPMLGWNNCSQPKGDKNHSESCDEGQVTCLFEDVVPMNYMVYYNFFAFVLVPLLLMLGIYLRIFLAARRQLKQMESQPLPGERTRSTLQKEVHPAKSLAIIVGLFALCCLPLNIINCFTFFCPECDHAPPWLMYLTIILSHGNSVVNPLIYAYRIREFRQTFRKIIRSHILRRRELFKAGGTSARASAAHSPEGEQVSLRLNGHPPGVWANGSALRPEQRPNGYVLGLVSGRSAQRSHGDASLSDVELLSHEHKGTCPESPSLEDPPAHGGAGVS
The target in assay [4] is T3, Adenosine receptor A3 (Ovis aries, UniProt P35342).
T3 sequence (P35342 whole entry): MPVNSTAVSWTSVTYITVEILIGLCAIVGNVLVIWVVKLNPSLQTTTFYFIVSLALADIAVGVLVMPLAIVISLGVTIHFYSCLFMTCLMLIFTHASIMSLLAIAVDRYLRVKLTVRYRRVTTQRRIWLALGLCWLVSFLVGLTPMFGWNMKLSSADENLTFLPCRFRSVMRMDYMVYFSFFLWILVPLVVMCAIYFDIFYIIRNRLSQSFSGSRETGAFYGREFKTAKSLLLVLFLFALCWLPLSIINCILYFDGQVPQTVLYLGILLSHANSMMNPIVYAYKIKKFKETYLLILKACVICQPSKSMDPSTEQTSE
In words: Binding affinity to sheep adenosine A3 receptor.

In assay [5] the target is T4, Adenosine receptor A3 (Rattus norvegicus, UniProt P28647).
T4 sequence (P28647 whole entry): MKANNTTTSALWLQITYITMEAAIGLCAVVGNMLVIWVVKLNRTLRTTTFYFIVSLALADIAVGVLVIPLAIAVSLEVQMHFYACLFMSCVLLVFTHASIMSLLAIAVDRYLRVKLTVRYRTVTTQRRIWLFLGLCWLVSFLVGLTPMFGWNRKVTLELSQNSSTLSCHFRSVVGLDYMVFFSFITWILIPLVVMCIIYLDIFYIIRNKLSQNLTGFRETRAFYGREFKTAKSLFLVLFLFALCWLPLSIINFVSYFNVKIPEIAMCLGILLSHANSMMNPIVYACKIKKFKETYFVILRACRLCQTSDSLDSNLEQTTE
Description: Binding affinity to rat adenosine A3 receptor

Assay [6] concerns the target T5, Adenosine receptor A1 (Homo sapiens, UniProt P30542).
T5 sequence (P30542 whole entry): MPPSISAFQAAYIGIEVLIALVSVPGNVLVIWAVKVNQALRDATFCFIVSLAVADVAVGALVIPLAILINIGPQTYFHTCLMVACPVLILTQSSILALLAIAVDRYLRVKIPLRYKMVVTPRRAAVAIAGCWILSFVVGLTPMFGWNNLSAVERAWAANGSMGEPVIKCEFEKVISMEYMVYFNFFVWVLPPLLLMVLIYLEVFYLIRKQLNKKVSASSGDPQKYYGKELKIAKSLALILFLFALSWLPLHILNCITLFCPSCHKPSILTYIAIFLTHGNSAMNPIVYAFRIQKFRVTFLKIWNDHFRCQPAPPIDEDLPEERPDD
In words: Displacement of [3H]CCPA from human adenosine A1 receptor expressed in CHO cells. The assay is classed as cell-based.

Assay [7] deals with T6, Adenosine receptor A1 (Rattus norvegicus, UniProt P25099).
T6 sequence (P25099 whole entry): T1 sequence (Q60612 whole entry) with E151V, A155D, I157R, E316D, I319L, D325E
Description: Displacement of [3H]CCPA from adenosine A1 receptor in rat brain cortex membrane

For assay [8], the target named is T7, Adenosine receptor A3 (Homo sapiens, UniProt P0DMS8).
T7 sequence (P0DMS8 whole entry): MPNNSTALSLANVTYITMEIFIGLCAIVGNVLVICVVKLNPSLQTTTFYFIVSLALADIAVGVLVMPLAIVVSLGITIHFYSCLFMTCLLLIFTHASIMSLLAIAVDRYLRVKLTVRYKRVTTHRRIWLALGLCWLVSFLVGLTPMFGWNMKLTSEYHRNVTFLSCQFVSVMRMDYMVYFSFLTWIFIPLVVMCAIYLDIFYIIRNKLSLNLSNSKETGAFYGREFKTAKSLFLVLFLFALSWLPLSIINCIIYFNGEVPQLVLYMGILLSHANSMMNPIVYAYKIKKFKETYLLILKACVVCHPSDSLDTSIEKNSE
In words: biochemical.
Description: Displacement of [3H]PSB-11 from human adenosine A3 receptor expressed in CHO cells

A further assay deals with T8, Adenosine receptor A2b (Homo sapiens, UniProt P29275).
T8 sequence (P29275 whole entry): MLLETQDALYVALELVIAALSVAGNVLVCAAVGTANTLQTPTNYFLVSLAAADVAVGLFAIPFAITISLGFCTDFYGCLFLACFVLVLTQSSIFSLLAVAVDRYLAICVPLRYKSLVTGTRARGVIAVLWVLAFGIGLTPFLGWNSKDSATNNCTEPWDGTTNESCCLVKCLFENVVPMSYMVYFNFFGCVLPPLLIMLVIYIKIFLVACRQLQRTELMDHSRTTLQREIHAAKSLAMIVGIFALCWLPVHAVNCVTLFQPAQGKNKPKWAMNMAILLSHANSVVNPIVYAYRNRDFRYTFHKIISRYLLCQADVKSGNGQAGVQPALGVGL
Kind of assay: Displacement of [3H]PSB-603 from human adenosine A2B receptor expressed in CHO cells. The assay is classed as cell-based.

The target in assay [9] is T9, Adenosine receptor A2b (Homo sapiens) (UniProt P29275).
T9 sequence (whole entry): T8 sequence (P29275 whole entry)
In words: Displacement of [3H]PSB-603 from human adenosine A2B receptor expressed in CHO cells at 1 uM. In kind it is cell-based. Background: Displacement assays read how much labelled ligand stays bound in the presence of the test substance.

The target in assay [10] is Adenosine receptor A2a (Rattus norvegicus) (UniProt P30543). Kind of assay: Displacement of [3H]MSX2 from adenosine A2A receptor in rat brain striatum membrane at 1 uM. The assay is classed as cell membranes.
Sequence of Adenosine receptor A2a (Rattus norvegicus) (P30543 whole entry): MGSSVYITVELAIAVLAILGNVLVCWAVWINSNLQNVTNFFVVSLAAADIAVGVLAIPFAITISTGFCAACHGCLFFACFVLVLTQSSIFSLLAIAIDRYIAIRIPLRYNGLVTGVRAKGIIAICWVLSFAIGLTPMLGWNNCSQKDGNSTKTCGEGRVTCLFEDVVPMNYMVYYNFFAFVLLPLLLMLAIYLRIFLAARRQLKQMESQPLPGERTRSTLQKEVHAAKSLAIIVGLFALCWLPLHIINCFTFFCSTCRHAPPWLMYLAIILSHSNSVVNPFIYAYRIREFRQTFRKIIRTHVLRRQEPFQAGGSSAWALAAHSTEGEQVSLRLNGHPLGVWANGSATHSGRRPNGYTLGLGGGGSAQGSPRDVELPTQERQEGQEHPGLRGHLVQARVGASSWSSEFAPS
For assay [11], the target named is T10, Adenosine receptor A1 (Rattus norvegicus) (UniProt P25099).
T10 sequence (whole entry): T1 sequence (Q60612 whole entry) with E151V, A155D, I157R, E316D, I319L, D325E
Kind of assay: Potency shift, ratio of IC50 for rat brain cortical membrane adenosine A1 receptor in presence of 100 uM GTP to C50 for rat brain cortical membrane adenosine A1 receptor in absence of 100 uM GTP.

For assay [12], the target named is T6, Adenosine receptor A1. In words: Displacement of [3H]DPCPX from adenosine A1 receptor in rat brain cortical membrane in presence of 100 uM GTP. In kind it is cell membranes.
The target in assay [13] is T6, Adenosine receptor A1. Kind of assay: Displacement of [3H]DPCPX from adenosine A1 receptor in rat brain cortical membrane in absence of 100 uM GTP. The assay is classed as cell membranes.
The target in assay [14] is T11, Adenosine receptor A2a (Rattus norvegicus, UniProt P30543).
T11 sequence (P30543 whole entry): as above
The target of assay [15] is T12, Adenosine receptor A2a (Homo sapiens, UniProt P29274). Kind of assay: Displacement of [3H]MSX2 from human adenosine A2A receptor expressed in CHO cells. In kind it is cell-based.
T12 sequence (P29274 whole entry): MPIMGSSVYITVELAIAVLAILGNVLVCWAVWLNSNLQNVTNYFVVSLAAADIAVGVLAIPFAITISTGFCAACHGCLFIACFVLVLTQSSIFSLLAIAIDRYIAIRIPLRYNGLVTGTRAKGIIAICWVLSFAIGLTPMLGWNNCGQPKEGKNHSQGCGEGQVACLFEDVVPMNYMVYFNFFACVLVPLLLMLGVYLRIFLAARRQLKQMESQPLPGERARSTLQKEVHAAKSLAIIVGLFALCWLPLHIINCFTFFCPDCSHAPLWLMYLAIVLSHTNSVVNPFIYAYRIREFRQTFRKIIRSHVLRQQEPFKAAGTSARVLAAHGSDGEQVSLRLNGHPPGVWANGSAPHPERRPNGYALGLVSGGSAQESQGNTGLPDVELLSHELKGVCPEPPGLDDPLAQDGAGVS
The target in assay [16] is T11, Adenosine receptor A2a. The source holds these as a separate data set.
Description: Binding affinity to rat adenosine A2A receptor
Assay [17] addresses T5, Adenosine receptor A1. In words: Binding affinity to human adenosine A1 receptor.
In assay [18] the target is T9, Adenosine receptor A2b (Homo sapiens). Kind of assay: Antagonist activity at human adenosine A2B receptor. The assay is classed as functional.
The target in assay [19] is T12, Adenosine receptor A2a.
Description: Binding affinity to human adenosine A2A receptor

SMILES strings stand for the structures. Positions count from the first letter of the chain named.

With `O=C(/C=C/c1c(-c2ccccc2)nn2ccccc12)N1CCCC[C@@H]1CCO` [FK453], the affinity on Adenosine receptor A1 [1] corresponds to a Ki of 0.55 nM. Further, the results for the half-maximal inhibitory concentration (IC50) at Adenosine receptor A1 [2] and on Adenosine receptor A2a [3] were 0.56 nM and 1180 nM, respectively.

In the case of `Cn1cnc2c(N[C@H]3C[C@H]4CC[C@@H]3C4)ncnc21`, the inhibition constant Ki amounted to 375 nM on Adenosine receptor A1 [2], 3750 nM on Adenosine receptor A2a [3] and 41.4 nM at Adenosine receptor A3 [4].

`Cn1c(=O)c2[nH]cnc2n(C)c1=O` [THEOPHYLLINE] gave a Ki at Adenosine receptor A3 [5] of 85000 nM.

For the molecule `Cc1ccc(C(=O)c2sc(NC(=O)c3ccccc3)nc2-c2ccccc2)cc1`, the Ki was 57.4 nM on Adenosine receptor A1 [6]; 4.83 nM on Adenosine receptor A1 [7]; 2160 nM at Adenosine receptor A3 [8]; over 1000 nM on Adenosine receptor A2b; over 1000 nM on Adenosine receptor A2a [14]; 6250 nM on Adenosine receptor A2a [15]. The inhibition in assay [9] and in assay [10] was under 30% each time. Also, the Ratio IC50 in [11] turned out to be 0.99. Besides, the results for the IC50 on Adenosine receptor A1 [12] and at Adenosine receptor A1 [13] were 22.3 nM and 22.1 nM, respectively.

On to `O=C(O)CCCn1nc(-c2c(-c3ccccc3)nn3ccccc23)ccc1=O`, for which the Ki on Adenosine receptor A2a [16] turned out to be 1200 nM; at Adenosine receptor A1 [1] it was 10.2 nM; on Adenosine receptor A1 [2], 10 nM; at Adenosine receptor A1 [17], 12 nM.

Consider `O=C(Nc1nc(-c2ccccc2)c(C(=O)c2ccccc2)s1)c1ccco1`, for which the inhibitory constant (Ki) on Adenosine receptor A1 [6] is 54.3 nM; at Adenosine receptor A1 [7] it was 5.77 nM; on Adenosine receptor A3 [8] it was 208 nM; at Adenosine receptor A2b it was over 1000 nM; on Adenosine receptor A2a [14] it was 662 nM; at Adenosine receptor A2a [15] it was 348 nM. In assay [9], this molecule registered an inhibition of under 30%. Besides, in [11], the Ratio IC50 worked out at 1.2. Also, the IC50 on Adenosine receptor A1 [12] worked out at 28.8 nM; on Adenosine receptor A1 [13] it was 25.4 nM.

Regarding `COc1cc(-c2nc(NC(C)=O)sc2-c2ccncc2)cc(OC)c1OC`, the Ki on Adenosine receptor A1 [17] and at Adenosine receptor A2a [19] was over 10000 nM throughout. This molecule yielded an antagonist equilibrium constant (Kb) in [18] of 3200 nM.

Broadly, the Ki is a measure of affinity in units of concentration, obtained from inhibition or displacement. The low end stands for tighter binding, the high end for weaker binding. In general, IC50 refers to the point on the concentration scale where inhibition reaches its midpoint. One may read the inhibition as the change of the read-out against control, counted positive when it falls. Lower therefore signals a weak effect. A word on the Kb: it is the affinity of an antagonist, worked out from how it opposes an agonist.

The values are drawn from ChEMBL document CHEMBL1157642, “2-Amino-5-benzoyl-4-phenylthiazoles: Development of potent and selective adenosine A1 receptor antagonists” (Bioorg Med Chem, 2010).
